From US20070254859A1 (priority 2006, published 2007)

Key:
in vivo = settings: male, Wistar-Hannover, rat, plasma, po, 12 mg/kg
Method: Male, Wistar-Hannover rats (257-313 g) were used; animals were cannulated in the jugular vein for blood sampling. Animals were individually housed at 18-26° C. with 30-70% humidity. Animals were allowed free movement and access to water with 12 h dark and light cycles. Dosing was 2-4 h after the beginning of a light cycle and dosing time across each group was consistent. All animals had access to water, ad libitum, and were fasted 8 h prior to dosing; food was returned 5 h post-dose. Animals were dosed using a 1 mL syringe. Group 1, the intravenous group (raloxifene, 2.5 mg/kg), was dosed using an infusion rate of ˜0.3 mL per minute.
Sampling—using an AccuSampler®, blood samples (˜120 μL) were collected from 4 animals/group/time point from a catheter inserted into the jugular vein. Blood samples were taken and removed blood volume was replaced by an equivalent volume of intraperitoneal saline after each draw. Blood samples were centrifuged and plasma transferred into a designated well of a 96-well plate. Samples were kept frozen (−80±10° C.) until sample preparation and HPLC/MS/MS analysis.
Internal standard (IS) solution was prepared in a 500 mL volumetric flask containing 1:1 v/v acetonitrile:methanol and ˜0.04 μM of saquinavir base. Individually, the 96-well plates were removed from the freezer (−80±10° C.) and allowed to warm to ambient temperature (˜45-50 min). The in vivo plasma samples, either 25 or 50 μL, were transferred into separate 1.5 mL micro-centrifuge tubes. Total plasma volume was brought to ˜100 μL by adding male Wistar-Hannover plasma (potassium EDTA). Subsequently, 200 μL of IS solution was added, capped, mixed (˜5 sec) and centrifuged at 13,200 rpm for 10 mm using an Eppendorf minispin centrifuge. The supernatant (˜250 μL) was transferred into individual wells of a 96-well plate. The 96-well plate was sealed and centrifuged at 3000 rpm for 10 min at 10° C. […] The 96-well plate was then placed into the auto-sampler cool-stack (˜6° C.) and analyzed via LC/MS/MS. Raloxifene, and raloxifene glucuronide standard curves and quality control (QC's) samples were prepared in an analogous way as described above. […] The limit of detection (LOD) for raloxifene was ˜0.2 ng/mL while the glucuronides were ˜0.1 ng/mL.

Caco-2 cells = settings: compound 30 μM on both sides, Rhodamine 123 10 μM, Bl-Ap direction, Caco-2 monolayers; read from FIG. 2

Molecule	AUC(0-t) (in vivo) [ng·h/mL]	Cmax (in vivo) [ng/mL]	Tmax (in vivo) [h]	bioavailability (in vivo) [%]	RHO in vitro efflux inhibition (Caco-2 cells) [%]
O=C(c1ccc(OCCN2CCCCC2)cc1)c1c(-c2ccc(O)cc2)sc2cc(O)ccc12 [raloxifene]	452	50 to 60	~4	3.6 ± 0.8	
d-α-tocopheryl polyethylene glycol succinate [TPGS 1000]					~40
